Experimental data as given in the METLIN SMRT retention time set (Domingo-Almenara et al. 2019).

Assay: gradient 5% acetonitrile 3 min, to 50% in 2 min, to 85% in 15 min, held 3 min, 100 µL/min
Details: column: Zorbax Extend-C18 2.1 x 50 mm; eluents: water / acetonitrile, 0.1% formic acid
Summary of the method: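 Retention times of pure standards were taken from adduct peaks that were selected by computer and manually inspected. Over 3 months, mixtures of ~100 molecules were run by HPLC–quadrupole time-of-flight mass spectrometry in positive and negative ionization mode. The Zorbax Extend-C18 column (2.1 × 50 mm, 1.8 μm) ran at 100 μL/min in water and acetonitrile, each containing 0.1% formic acid, with 40 μL dead volume and 900 μL dwell volume.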

| Structure (SMILES) | RP-LC retention time [s] |
| --- | --- |
| CCCN1C(=O)c2c(C(=O)NCc3cccc(F)c3)ncn2CC1(C)C(=O)NCCC(C)C (stereo not drawn) | 843 |
| COc1ccc(Cl)cc1-n1nnc(C(=O)NC2CC2)c1-c1ccncc1 | 715 |
| CN(C)CCNC(=O)Cc1cccn1-c1ccc(F)cc1 | 598 |
| CCOc1ccccc1NC(=O)N1CCCC1c1cc(CC)no1 (stereo not drawn) | 833 |
| CN1c2cc(Cl)ccc2C(=O)NC12CCN(C(=O)Nc1ccccc1F)CC2 | 770 |
| COc1ccccc1NC(=O)Cn1cccc(-c2nc(-c3ccc(Br)cc3)no2)c1=O | 1000 |
| CN1CCCN(C(=O)c2ccc(-c3ccsc3)nc2)CC1 | 586 |
| O=c1c2scc(-c3cccc(F)c3)c2ncn1Cc1cc(=O)n2ccccc2n1 | 809 |
| COc1ccc(NC(=O)CCNc2cnc3cnccn23)cc1Cl | 603 |
| CCn1c(=O)c(C(=O)NCc2cccc(F)c2)nc2cccnc21 | 797 |
| Cc1ccc(CNC(=O)C2CCN(C(=O)c3cc(-c4cccnc4)n[nH]3)CC2)o1 | 586 |
| O=C(NCc1csc(-c2ccccc2)n1)C1CCN(S(=O)(=O)c2cccc3nsnc23)CC1 | 886 |
| CCOC(=O)COC(=O)c1cn(-c2cccc(OC)c2)c(=O)c2ccccc12 | 1010 |
| N#Cc1ccc(C(=O)N2CCN(S(=O)(=O)c3cc(-c4noc(C5CCC5)n4)cs3)CC2)cc1 | 975 |
| Cc1ccc(C2Cn3cnc(C(=O)N4CCC(C(=O)NCc5ccco5)CC4)c3CO2)cc1 (stereo not drawn) | 729 |
| Cc1ccn2cc(CNS(=O)(=O)c3ccc(-c4ccccc4)cc3)nc2c1 | 588 |
| Cc1nc(-c2noc(-c3ccccc3)n2)cn1CC(=O)N1CCN(c2ccccc2F)CC1 | 894 |
| O=S(=O)(c1ccccc1Cl)N1CCC(OCc2noc(C3CCCO3)n2)CC1 (stereo not drawn) | 912 |
| CC(C)(C)c1ccc(-c2nc(C3CC(=O)N(c4ccc(F)c(Cl)c4)C3)no2)cc1 (stereo not drawn) | 1360 |
| Cc1cn(C)c(CC(=O)N2CCCCCC2)c1C(=O)O | 664 |
| Cc1nn(CC(=O)NC2CCCCCC2)c(=O)c2nn(-c3ccccc3)c(C)c12 | 822 |
| Cc1c(-c2ccnc(N3CCC(C)CC3)n2)cnc2nc(-c3ccccc3)nn12 | 1320 |

| Structure (SMILES) | RP-LC retention time [s] |
| --- | --- |
| CCC(C)C(NC(=O)c1cccc(F)c1)C(=O)Nc1nc2ccccc2[nH]1 (stereo not drawn) | 748 |
| COc1ccc(N2CC(c3nc(-c4ccc(C)cc4)no3)CC2=O)cc1Cl (stereo not drawn) | 1050 |
| CCCS(=O)(=O)N1CCC(OCCOCc2ccccc2)CC1 | 937 |
| O=C(Nc1ccc2c(c1)OCCO2)N1CC(c2nc(CCOCc3ccccc3)no2)C1 | 853 |
| CCOC(=O)CCCn1nc(C)c2nn(-c3ccccc3)c(-n3cccc3)c2c1=O | 1060 |
| Cc1cc(NC(=O)CN2C(=O)CCc3cc(Br)ccc32)c2ccccc2n1 | 684 |
| COC(=O)c1nc(NC(=O)Cn2nc3c(cc2=O)CCCC3)sc1CC(C)C | 855 |
| Cc1ccc(N2CCC(NC(=O)Nc3ccc(F)cc3)C2=O)cc1 (stereo not drawn) | 846 |
| COc1ccccc1C(=O)N1CCN(c2nc3ccccc3n(C)c2=O)CC1 | 830 |
| O=C(NC1CC1)c1ccc(OCC2CCN(C(=O)c3cc(F)ccc3Cl)CC2)cc1 | 839 |
| COc1cccc(N2CCN(Cc3nc4nc(C)cc(N5CCCC5)n4n3)CC2)c1 | 619 |
| COCCN1C(=O)c2ccccc2C(C(=O)N2CCN(c3ccccn3)CC2)C1c1ccc(F)cc1 (stereo not drawn) | 619 |
| CCN1CCN(Cc2nc3cc(NC(=O)c4cccs4)ccc3n2C(C)C)CC1 | 586 |
| Cc1cccc(C(=O)Nc2cc(-c3cccs3)no2)c1 | 1000 |
| CCC(=O)N1CCCN(C2=NS(=O)(=O)C(c3ccc(CC)cc3)=C2C)CC1 | 796 |
| CCN1CCN(C(=O)CS(=O)Cc2cnn(-c3ccccc3)c2-n2cccc2)CC1 (stereo not drawn) | 614 |
| Cc1c(Cl)cccc1NC(=O)NCC(c1cccnc1)c1c[nH]c2ccccc12 (stereo not drawn) | 706 |
| COCCN1CCC(CNS(=O)(=O)c2ccc(OCC(C)C)cc2)CC1 | 587 |
| O=C1CCCc2cc(S(=O)(=O)N3CCC(C(=O)Nc4ccc(F)cc4)CC3)ccc2N1 | 749 |
| CC1(C)CC(=O)C2=C(C1)Nc1ccccc1N(CC(=O)Nc1cccc(F)c1)C2c1ccco1 (stereo not drawn) | 924 |
| CCc1ccc(S(=O)(=O)Nc2cc(-c3cn4ccccc4n3)ccc2C)cc1 | 695 |
| Cc1ccc2nc3sc(C(=O)Nc4cccc(C(F)(F)F)c4)cc3c(=O)n2c1 | 980 |

| Structure (SMILES) | RP-LC retention time [s] |
| --- | --- |
| O=C(Nc1cccc(-c2ccc(N3CCOCC3)nn2)c1)Nc1ccccc1Cl | 730 |
| Cc1ccc(NC(=O)N2CCC(N3CCN(Cc4ccc(F)cc4)C(=O)C3=O)CC2)cc1 | 754 |
| COc1cccc(NS(=O)(=O)c2cc(-c3nc(C)c(C(=O)N4CCCC4)s3)cs2)c1 | 844 |
| CC1=C(c2ccccc2)C=NNCC1=O | 733 |
| CCn1c(C(=O)NCCc2c[nH]c3ccccc23)cc2cc(S(=O)(=O)N(C)C)ccc21 | 969 |
| O=C(Nc1nnc(-c2ccccc2Cl)o1)c1cccc([N+](=O)[O-])c1 | 767 |
| Cc1ccc(-c2nc3ncccn3c2Nc2ccccc2C)cc1 | 802 |
| COCCN1C(=O)CCc2cc(NS(=O)(=O)c3cc(C)cc(C)c3)ccc21 | 816 |
| Cn1c(-c2cccc(C(=O)NC3CCCCCC3)c2)nc2cccnc21 | 780 |
| Cc1cccc(-c2noc(Cn3ccn(-c4cc(C)ccc4C)c(=O)c3=O)n2)c1 | 963 |
| O=C(CCc1nc(-c2ccc(N3CCCCC3)cc2)no1)NCCC1=CCCCC1 | 1090 |
| CCOc1ccc(NC(=O)c2cnc(N3CCSCC3)nc2N)cc1 | 712 |
| CCc1nnc(-c2ccc3ccn(CC(=O)Nc4ccc5c(c4)OCCO5)c3c2)o1 | 811 |
| O=C(c1cn(-c2cc(N3CCCCC3)ncn2)cn1)N1CCN(c2ccccn2)CC1 | 636 |
| CC(=O)N(CC(=O)N1CCc2sccc2C1COc1ccc(F)cc1)CC1CCCO1 (stereo not drawn) | 813 |
| CN1C(=O)c2cccnc2Sc2cc(NC(=O)c3ccsc3)ccc21 | 725 |
| COc1ccc(C2(C(=O)N3CCCC(CN4CCCC4)CC3)CC2)cc1 (stereo not drawn) | 618 |
| COCc1cc2nn(CC(=O)Nc3ccc(OC)c(F)c3)c(=O)n2c(-c2ccccc2)n1 | 797 |
| CCOc1cccc(-c2noc(Cn3ccn(Cc4ccc(Cl)cc4)c(=O)c3=O)n2)c1 | 973 |
| COc1cc(NC(=O)Nc2nc(-c3nc4ccccc4s3)cs2)cc(OC)c1OC | 863 |
| O=C(CN1CC=C(c2cnn(-c3ccccc3)c2)CC1)N1CCC(N2CCCCC2)CC1 | 573 |
| O=C(NCc1nc(-c2ccc(NS(=O)(=O)c3ccc(Cl)cc3)cc2)no1)c1cccs1 | 909 |

| Structure (SMILES) | RP-LC retention time [s] |
| --- | --- |
| Cc1nc(C(=O)N2CCN(Cc3ccc(C)c(C)c3)CC2)c(C)o1 | 619 |
| CCc1ccc(OCC(=O)Nc2cnn(CC)c(=O)c2N2CCOCC2)cc1 | 981 |
| CCNC(=O)CN1c2ccc(F)cc2-c2ccccc2S1(=O)=O | 786 |
| Cc1[nH]nc(-c2c(C)sc(C)c2S(=O)(=O)N2CCN(c3ccccc3F)CC2)c1C | 1010 |
| COc1ccc(CNC(=O)Cn2c(C)cc(-c3nnc(C4CCC4)o3)c2C)cc1 | 818 |
| Cc1nc(-c2csc(S(=O)(=O)N3CCCC(C(=O)NCc4cccs4)C3)c2)no1 (stereo not drawn) | 847 |
| COCCNC(=O)CSc1cn(CC(=O)N2CC(C)OC(C)C2)c2ccccc12 (stereo not drawn) | 709 |
| O=C(NCc1ccc(N2CCOCC2)nc1)c1ccccc1Br | 581 |
| Cc1nc(C(=O)Nc2ccc(Cl)c(C)c2)c(C)o1 | 1010 |
| Cc1cc(C)cc(NC(=O)C2CCN(c3nccnc3Sc3cccc(C)c3)CC2)c1 | 1150 |
| CCOc1ccc(N(CC)C(=O)C(=O)c2c[nH]c3ccccc23)cc1 | 852 |
| Cc1sc(NC(=O)c2cccnc2)nc1-c1ccc2c(c1)N(C)C(=O)CO2 | 754 |
| CCCN1C(=O)COc2ccc(-c3noc(/C=C/c4ccccc4)n3)cc21 | 1250 |
| CCOc1cc2c(cc1OCC)C1C(C(=O)Nc3cccnc3)c3ccccc3C(=O)N1CC2 (stereo not drawn) | 611 |
| Cc1ccc(-c2nc3nc(C)cc(N4CCN(c5ccccn5)CC4)n3n2)cc1 | 629 |
| O=C1CCCN1CCCn1c(SCc2c(F)cccc2F)nc2ccccc2c1=O | 895 |
| Cc1cc(Cl)ccc1OCC(=O)N1CCCCC1c1nncn1C (stereo not drawn) | 767 |
| O=C(Cn1ncc2c3ccccc3n(Cc3ccccc3)c2c1=O)N1CCN(c2ncccn2)CC1 | 902 |
| CCC(=O)N1CCc2c(C(=O)N3CCN(c4ccc(OC)cc4)CC3)cccc21 | 778 |
| O=C(Cn1c(=O)c2cccn2c2ccc(F)cc21)NC1CCCCC1 | 850 |
| CCCC(NCc1ccc2c(c1)n(C)c(=O)n2C)c1ccccc1 (stereo not drawn) | 635 |
| COc1cccc(N2N=NC3C(=O)N(c4ccccc4)C(=O)C32)c1 (stereo not drawn) | 922 |
